Experimental data taken from publication PMC6541511 (Organic & biomolecular chemistry, 2019).

Legend:
[1] = tested on: MDA-MB-231; experiment: CellTiterGlo; type: cell-based; settings: Homo sapiens, MDA-MB-231, read-out: MDA-MB-231 EC50
[2] = tested on: SUM149; experiment: CellTiterGlo; type: cell-based; settings: SUM149, read-out: SUM149 EC50
[3] = tested on: HMEC; experiment: CellTiterGlo; type: cell-based; settings: Homo sapiens, read-out: HMEC EC50
[4] = tested on: T-47D; experiment: CellTiterGlo; type: cell-based; settings: Homo sapiens, T47D, read-out: T-47D EC50
[5] = physchem
[6] = Solubility / precipitation; settings: 5–10 mM concentrations in DMSO, RT

| Structure (SMILES) | EC50 [1] [µM] | EC50 [2] [µM] | EC50 [3] [µM] | EC50 [4] [µM] | solubility [5] [µM] | time after which precipitation occurs [6] [h] |
| --- | --- | --- | --- | --- | --- | --- |
| CC(=O)O[C@H]1C(=O)[C@@]2(C)[C@H]([C@H](OC(=O)c3ccccc3)[C@]3(O)C[C@H](OC(=O)[C@H](O)[C@@H](NC(=O)c4ccccc4)c4ccccc4)C(C)=C1C3(C)C)[C@]1(OC(C)=O)CO[C@@H]1C[C@@H]2O [Taxol] | 2 | 0.01 | > 10 |  |  |  |
| CCCCCOC(=O)Nc1nc(=O)n([C@@H]2O[C@H](C)[C@@H](O)[C@H]2O)cc1F [Capecitabine] | 5 | 5 | 10 |  |  |  |
| COc1cccc2c1C(=O)c1c(O)c3c(c(O)c1C2=O)C[C@@](O)(C(=O)CO)C[C@@H]3O[C@H]1C[C@H](N)[C@H](O)[C@H](C)O1 [Doxorubicin] | 1 | 1 | > 10 |  |  |  |
| CC(C)[C@@H](C)/C=C/[C@@H](C)[C@H]1CC[C@@H]2[C@]1(C)CC[C@H]1[C@]23C=C[C@]2(C[C@@H](O)CC[C@]12C)OO3 [compound 3, ergosterol peroxide] | 18 | 9 | > 20 | 19 | < 50 | 168 |
